Experimental data as given in patent US20130035232A1, “INDUCTION AND STABILIZATION OF ENZYMATIC ACTIVITY IN MICROORGANISMS” (GEORGIA STATE UNIVERSITY RESEARCH FOUNDATION, INC., priority 2010, published 2013).
Blank lines part the entries; values can stand above or below the compound they belong to.

Key:
asparaginase I [1] = assay: Asparaginase I production on supplemented medium; assay type: cell-based; settings: YEMEA, 7.5 g/L urea, 10 ppm cobalt
Method: The induction of asparaginase I production in various nitrile hydratase producing microorganisms was evaluated. All strains were grown on YEMEA medium containing 7.5 g/L of urea and 10 ppm cobalt (provided as cobalt chloride) supplemented with asparagine (ASN), glutamine (GLN), or both asparagine and glutamine. The asparagine and glutamine were added at a concentration of 3.8 mM. As a comparative, enzyme production was also evaluated with supplementation with acrylonitrile (AN), acrylamide (AMD) or acrylonitrile and acrylamide. Growth temperature was in the range of 26° C. to 30° C.

nitrile hydratase [2] = assay: Nitrile hydratase induction by inducers (Example 1); assay type: cell-based, Rhodococcus sp., strain DAP 96253; settings: inducer 1000 ppm; for Nitrile Hydratase Activity: Rhodococcus sp. DAP 96253, YEMEA, 10 ppm cobalt, 7.5 g/L urea
Method: (§1) The induction of nitrile hydratase activity and amidase activity in Rhodococcus sp., strain DAP 96253, was evaluated using multiple types of inducers (1000 ppm). Three different samples were cultured in YEMEA medium containing 10 ppm cobalt and 7.5 g/L urea and supplemented with acrylonitrile, asparagine, or glutamine. The specific nitrile hydratase activity and the specific amidase activity in each sample was evaluated, and the results are provided below in Table 3, with activities provided in units/mg cdw (cell dry weight). One unit of nitrile hydratase activity relates to the ability to convert 1 μmol of acrylonitrile to its corresponding amide per minute, per milligram of cells (dry weight) at a pH of 7.0 and a temperature of 30° C. One unit of amidase activity relates to the ability to convert 1 μmol of acrylamide to its corresponding acid per minute, per milligram of cells (dry weight) pH of 7.0 and a temperature of 30° C.

amidase [3] = assay: Amidase induction by inducers (Example 1); assay type: cell-based, Rhodococcus sp., strain DAP 96253; settings: for Amidase Activity: Rhodococcus sp. DAP 96253, YEMEA, 10 ppm cobalt, 7.5 g/L urea, inducer 1000 ppm
Method: as §1

asparaginase I [4] = assay: Effect of inducer and media composition on asparaginase I production; assay type: cell-based, Rhodococcus sp. DAP 96253; settings: inducer 1000 ppm; for Asparaginase I levels, YEMEA - Glucose With Cobalt / Asparaginase I levels, YEMEA - Glucose Without Cobalt / Asparaginase I levels, YEMEA - Maltose With Cobalt / Asparaginase I levels, YEMEA - Maltose Without Cobalt: Rhodococcus sp. DAP 96253
Method: Testing was performed to evaluate the effect on asparaginase I activity based upon the inducer used. In particular, testing was performed using asparagine, glutamine, succinonitrile, and isovaleronitrile as inducers (all added at 1000 ppm each).

amidase [5] = assay: Amidase production on supplemented medium; assay type: cell-based; settings: YEMEA, urea, cobalt, supplement 3.8 mM
Method: (§2) The induction of nitrile hydratase production and amidase production in various nitrile hydratase producing microorganisms was evaluated. All strains were grown on YEMEA medium containing 7.5 g/L of urea and 10 ppm cobalt (provided as cobalt chloride) supplemented with asparagine (ASN), glutamine (GLN), or both asparagine and glutamine. The asparagine and glutamine were added at a concentration of 3.8 mM. As a comparative, enzyme production with no supplementation was also tested. Growth temperature was in the range of 26° C. to 30° C.

nitrile hydratase [6] = assay: Nitrile hydratase production on supplemented medium; assay type: cell-based; settings: YEMEA, urea, cobalt, supplement 3.8 mM
Method: as §2

[7] = tested on: Brevibacterium ketoglutaricum ATCC 21533; assay: Growth on supplemented YEMEA (visual grade); assay type: cell-based; design: key: (−) meaning no detectable growth; (+/−) meaning scant growth; (+) meaning little growth; (++) meaning good growth; (+++) meaning very good growth; (++++) meaning excellent growth; settings: 30 °C, 7.5 g/L urea, 10 ppm cobalt, supplement 3.8 mM
Method: (§3) The relative growth of various nitrile hydratase producing microorganisms was evaluated. All strains were grown on YEMEA medium containing 7.5 g/L of urea and 10 ppm cobalt (provided as cobalt chloride) supplemented with asparagine (ASN), glutamine (GLN), or both asparagine and glutamine. The asparagine and glutamine were added at a concentration of 3.8 mM. Growth temperature was in the range of 26° C. to 30° C. Growth was evaluated by visual inspection and graded on the following scale: (−) meaning no detectable growth; (+/−) meaning scant growth; (+) meaning little growth; (++) meaning good growth; (+++) meaning very good growth; and (++++) meaning excellent growth.

[8] = tested on: Rhodococcus sp. DAP 96253 ATCC 55899; assay: Growth on supplemented YEMEA (visual grade); assay type: cell-based; design: key: (−) meaning no detectable growth; (+/−) meaning scant growth; (+) meaning little growth; (++) meaning good growth; (+++) meaning very good growth; (++++) meaning excellent growth; settings: 30 °C, 7.5 g/L urea, 10 ppm cobalt, supplement 3.8 mM
Method: as §3

[9] = tested on: Rhodococcus rhodochrous DAP 96622 ATCC 55898; assay: Growth on supplemented YEMEA (visual grade); assay type: cell-based; design: key: (−) meaning no detectable growth; (+/−) meaning scant growth; (+) meaning little growth; (++) meaning good growth; (+++) meaning very good growth; (++++) meaning excellent growth; settings: 26 °C, 7.5 g/L urea, 10 ppm cobalt, supplement 3.8 mM
Method: as §3

[10] = tested on: Rhodococcus erythropolis ATCC 47072; assay: Growth on supplemented YEMEA (visual grade); assay type: cell-based; design: key: (−) meaning no detectable growth; (+/−) meaning scant growth; (+) meaning little growth; (++) meaning good growth; (+++) meaning very good growth; (++++) meaning excellent growth; settings: 26 °C, 7.5 g/L urea, 10 ppm cobalt, supplement 3.8 mM
Method: as §3

[11] = tested on: Pseudomonas chloroaphis ATCC 43051; assay: Growth on supplemented YEMEA (visual grade); assay type: cell-based; design: key: (−) meaning no detectable growth; (+/−) meaning scant growth; (+) meaning little growth; (++) meaning good growth; (+++) meaning very good growth; (++++) meaning excellent growth; settings: 30 °C, 7.5 g/L urea, 10 ppm cobalt, supplement 3.8 mM
Method: as §3

[12] = tested on: Pseudomonas chloroaphis ATCC 13985; assay: Growth on supplemented YEMEA (visual grade); assay type: cell-based; design: key: (−) meaning no detectable growth; (+/−) meaning scant growth; (+) meaning little growth; (++) meaning good growth; (+++) meaning very good growth; (++++) meaning excellent growth; settings: 26 °C, 7.5 g/L urea, 10 ppm cobalt, supplement 3.8 mM
Method: as §3

[13] = Brevibacterium ketoglutaricum ATCC 21533, 30 °C
[14] = Pseudomonas chloroaphis ATCC 13985, 26 °C
[15] = Rhodococcus erythropolis ATCC 47072, 26 °C
[16] = Rhodococcus rhodochrous DAP 96622 ATCC 55898, 26 °C
[17] = Rhodococcus sp. DAP 96253 ATCC 55899, 30 °C
[18] = Pseudomonas chloroaphis ATCC 43051, 30 °C

Compound: C=CC(N)=O [AMD, acrylamide, reference compound]
Asparaginase I Level Based on Growth Medium Supplementation (asparaginase I [1]; [13]): 15.4 Units/mg cdw | Asparaginase I Level Based on Growth Medium Supplementation (asparaginase I [1]; [14]): 0 Units/mg cdw | Asparaginase I Level Based on Growth Medium Supplementation (asparaginase I [1]; [15]): 0 Units/mg cdw | Asparaginase I Level Based on Growth Medium Supplementation (asparaginase I [1]; [16]): 7.8 Units/mg cdw | Asparaginase I Level Based on Growth Medium Supplementation (asparaginase I [1]; [17]): 2 Units/mg cdw

Compound: C=CC#N [Acrylonitrile, acrylonitrile, reference compound]
Nitrile Hydratase Activity (nitrile hydratase [2]): 162.23 Units/mg cdw | Amidase Activity (amidase [3]): 7.59 Units/mg cdw | Asparaginase I Level Based on Growth Medium Supplementation (asparaginase I [1]; [13]): 14.6 Units/mg cdw | Asparaginase I Level Based on Growth Medium Supplementation (asparaginase I [1]; [14]): 2 Units/mg cdw | Asparaginase I Level Based on Growth Medium Supplementation (asparaginase I [1]; [16]): 8.2 Units/mg cdw | Asparaginase I Level Based on Growth Medium Supplementation (asparaginase I [1]; [17]): 7.8 Units/mg cdw

Amidase Level Based on Growth Medium Supplementation (amidase [5]; [18]): No | Nitrile Hydratase Level Based on Growth Medium Supplementation (nitrile hydratase [6]; [18]): No | Asparaginase I Level Based on Growth Medium Supplementation (asparaginase I [1]; [18]): No
Compound: NC(=O)CC[C@H](N)C(=O)O [Glutamine, glutamine]
Asparaginase I levels, YEMEA - Glucose With Cobalt (asparaginase I [4]): 1.9 units/mg cell dry weight | Asparaginase I levels, YEMEA - Glucose Without Cobalt (asparaginase I [4]): 1.5 units/mg cell dry weight | Asparaginase I levels, YEMEA - Maltose With Cobalt (asparaginase I [4]): 8.1 units/mg cell dry weight | Asparaginase I levels, YEMEA - Maltose Without Cobalt (asparaginase I [4]): 9.3 units/mg cell dry weight | ability to induce asparaginase I activity (asparaginase I [4]): showed an ability to induce asparaginase I activity | Nitrile Hydratase Activity (nitrile hydratase [2]): 173.45 Units/mg cdw | nitrile hydratase induction compared with acrylonitrile (nitrile hydratase [2]): exceeds the ability of acrylonitrile to induce such activity | Amidase Level Based on Growth Medium Supplementation (amidase [5]; [13]): 0 Units/mg cdw | Amidase Level Based on Growth Medium Supplementation (amidase [5]; [14]): 0 Units/mg cdw | Amidase Level Based on Growth Medium Supplementation (amidase [5]; [15]): 14 Units/mg cdw | Amidase Level Based on Growth Medium Supplementation (amidase [5]; [16]): 6 Units/mg cdw | Amidase Level Based on Growth Medium Supplementation (amidase [5]; [17]): 7 Units/mg cdw | Amidase Activity (amidase [3]): 10.39 Units/mg cdw | amidase activity greater than that resulting from acrylonitrile (amidase [3]; relative to acrylonitrile as inducer, 1000 ppm): approximately 37% | Nitrile Hydratase Level Based on Growth Medium Supplementation (nitrile hydratase [6]; [13]): 37 Units/mg cdw | Nitrile Hydratase Level Based on Growth Medium Supplementation (nitrile hydratase [6]; [14]): 0 Units/mg cdw | Nitrile Hydratase Level Based on Growth Medium Supplementation (nitrile hydratase [6]; [15]): 42 Units/mg cdw | Nitrile Hydratase Level Based on Growth Medium Supplementation (nitrile hydratase [6]; [16]): 160 Units/mg cdw | Nitrile Hydratase Level Based on Growth Medium Supplementation (nitrile hydratase [6]; [17]): 135 Units/mg cdw | Growth [7]: + | Growth [8]: ++++ | Growth [9]: ++++ | Growth [10]: ++ | Growth [11]: − | Growth [12]: + | Asparaginase I Level Based on Growth Medium Supplementation (asparaginase I [1]; [13]): 20.3 Units/mg cdw | Asparaginase I Level Based on Growth Medium Supplementation (asparaginase I [1]; [14]): 0 Units/mg cdw | Asparaginase I Level Based on Growth Medium Supplementation (asparaginase I [1]; [15]): 2 Units/mg cdw | Asparaginase I Level Based on Growth Medium Supplementation (asparaginase I [1]; [16]): 10 Units/mg cdw | Asparaginase I Level Based on Growth Medium Supplementation (asparaginase I [1]; [17]): 11.1 Units/mg cdw

Compound: CC(C)CC#N [Isovaleronitrile, isovaleronitrile, reference compound]
Asparaginase I levels, YEMEA - Glucose With Cobalt (asparaginase I [4]): 2.9 units/mg cell dry weight | Asparaginase I levels, YEMEA - Glucose Without Cobalt (asparaginase I [4]): 3.5 units/mg cell dry weight | Asparaginase I levels, YEMEA - Maltose With Cobalt (asparaginase I [4]): 7.0 units/mg cell dry weight | Asparaginase I levels, YEMEA - Maltose Without Cobalt (asparaginase I [4]): 6.8 units/mg cell dry weight

Compound: N#CCCC#N [Succinonitrile, succinonitrile, reference compound]
Asparaginase I levels, YEMEA - Glucose With Cobalt (asparaginase I [4]): 8.5 units/mg cell dry weight | Asparaginase I levels, YEMEA - Glucose Without Cobalt (asparaginase I [4]): 6.5 units/mg cell dry weight | Asparaginase I levels, YEMEA - Maltose With Cobalt (asparaginase I [4]): 10.0 units/mg cell dry weight | Asparaginase I levels, YEMEA - Maltose Without Cobalt (asparaginase I [4]): 11.0 units/mg cell dry weight | ability to induce asparaginase I activity (asparaginase I [4]): showed an ability to induce asparaginase I activity
